Measurements as given in ChEMBL document CHEMBL1151426, “Pharmacodynamics of doxycycline in a murine malaria model” (Antimicrob Agents Chemother, 2007).
The source made the active and inactive calls. No cut-off for these calls is given here.

Experiments:
[1] = test system: Plasmodium berghei; experiment: Antimalarial activity as parasitaemia nadir against Plasmodium berghei ANKA infected Swiss mice (Mus musculus) at 90 mg/kg intraperitoneal dose 65, 76 and 88 hrs post infection; format: functional
[2] = test system: Mus musculus; experiment: Toxicity in Plasmodium berghei ANKA infected Swiss mice (Mus musculus) assessed as median time for adverse effect at 90 mg/kg, intraperitoneally administered at 1,12 and 24 hrs after 64 hrs postinfection; format: organism-based; set-up: dose 90 mg/kg, route intraperitoneal; details: in vivo, ip
[3] = test system: Plasmodium berghei; experiment: Antimalarial activity as reduced parasitaemia against Plasmodium berghei ANKA infected Swiss mice (Mus musculus) at 90 mg/kg intraperitoneal dose at 65, 76 and 88 hrs post infection; format: functional, organism-based; set-up: dose 90 mg/kg
[4] = test system: Plasmodium berghei; experiment: Antimalarial activity as reduced parasitaemia against Plasmodium berghei ANKA infected Swiss mice (Mus musculus) up to 180 mg/kg intraperitoneal single dose 64 hrs post infection; format: functional, organism-based; set-up: dose 180 mg/kg
[5] = test system: Plasmodium berghei; experiment: Antimalarial activity as parasitaemia against Plasmodium berghei ANKA infected Swiss mice (Mus musculus) at 90 mg/kg intraperitoneal dose 65, 76 and 88 hrs post infection (Rvb=2.5%+/-0.5%); format: functional
[6] = Half life in Plasmodium falciparum infected human dosed every 24 hrs after 48 hrs of infection; format: ADME, organism-based; details: in vivo
[7] = Half life in healthy mouse at 50 mg/kg; format: ADME, organism-based; set-up: dose 50 mg/kg; details: in vivo
[8] = test system: Mus musculus; experiment: Toxicity in Plasmodium berghei ANKA infected Swiss mice (Mus musculus) assessed as adverse effect at 90 mg/kg, intraperitoneally administered at 1,12 and 24 hrs after 64 hrs postinfection; format: organism-based; set-up: dose 90 mg/kg, route intraperitoneal; details: in vivo, ip
[9] = Half life in Plasmodium falciparum infected human at 200 mg/day, perorally after 7 days; format: ADME, organism-based; details: in vivo, po
[10] = test system: Mus musculus; experiment: Toxicity in Plasmodium berghei ANKA infected Swiss mice (Mus musculus) assessed as discomfort at 180 mg/kg, intraperitoneally administered as single dose 64 hrs after infection; format: organism-based; set-up: dose 180 mg/kg, route intraperitoneal; details: in vivo, ip
[11] = test system: Plasmodium berghei; experiment: Antimalarial activity as parasitaemia nadir after 24 hrs against Plasmodium berghei ANKA infected Swiss mice (Mus musculus) at 30 mg/kg intraperitoneal single dose 64 hrs post infection; format: functional
[12] = test system: Plasmodium berghei; experiment: Antimalarial activity as parasitaemia against Plasmodium berghei ANKA infected Swiss mice (Mus musculus) at 30 mg/kg intraperitoneal single dose 64 hrs post infection (Rvb=2.5%+/-0.5%); format: functional
[13] = test system: Mus musculus; experiment: Toxicity in Plasmodium berghei ANKA infected Swiss mice (Mus musculus) assessed as median time for adverse effect at 30 mg/kg, intraperitoneally administered as single dose 64 hrs after infection measured after 24 hrs; format: organism-based; set-up: dose 30 mg/kg, route intraperitoneal; details: in vivo, ip
[14] = test system: Plasmodium berghei; experiment: Antimalarial activity as reduced parasitaemia after 24hrs against Plasmodium berghei ANKA infected Swiss mice (Mus musculus) at 30 mg/kg intraperitoneal single dose 64 hrs post infection; format: functional, organism-based; set-up: dose 30 mg/kg

Row | half-life [6] | half-life [7] | half-life [9] | SMILES | Activity [1] | Time [2] | Activity [3] | Activity [4] | Activity [5] | Activity [8] | Activity [10] | Activity [11] | Activity [12] | Activity [13] | Activity [14]
1 | 630 min | 168 min | 840 min | C[C@H]1c2cccc(O)c2C(=O)C2=C(O)[C@]3(O)C(=O)C(C(N)=O)=C(O)[C@@H](N(C)C)[C@@H]3[C@@H](O)[C@@H]21.O [DOXYCYCLINE] | 0.06% | 6 days | Active | inactive | 3% | Non-toxic | Toxic | – | – | – | –
2 | – | – | – | C[C@H]1[C@@H](O)O[C@@H]2O[C@@]3(C)CC[C@H]4[C@H](C)CC[C@@H]1[C@@]24OO3 [ARTENIMOL] | – | – | – | – | – | – | – | 0.53% | 2.6% | 1 days | Active
